Reference: ChEMBL document CHEMBL1121672, “Folate antagonists. 19. Synthesis and antimalarial effects of 6-(arylthio)-2,4-pteridinediamines” (1981)
Converted amounts (≈) assume the structure as drawn.

Key:
Type in all cases: functional
Staphylococcus aureus [1] = assay: Compound tested in vitro for antibacterial activity against Staphylococcus aureus (S18713)
Enterococcus faecalis = assay: Compound tested in vitro for antibacterial activity against Streptococcus faecalis(MGH-2)
Staphylococcus aureus [2] = assay: Compound tested in vitro for antibacterial activity against Staphylococcus aureus(UC-76)

| SMILES | MIC (Staphylococcus aureus [1]) [µg/mL] | MIC (Enterococcus faecalis) [µg/mL] | MIC (Staphylococcus aureus [2]) [µg/mL] |
| --- | --- | --- | --- |
| Nc1nc(N)c2nc(Sc3cccc4ccccc34)cnc2n1 | 1.5 (≈ 4.68 µM) | < 0.25 | < 0.25 |
| Nc1nc(N)c2nc(Sc3cc(Cl)c(Cl)cc3Cl)cnc2n1 | > 25 | 5 (≈ 13.4 µM) | > 25 |
| Nc1nc(N)c2nc(Sc3ccc(Cl)c(Cl)c3)cnc2n1 | > 25 | 2 (≈ 5.9 µM) | > 25 |
| Nc1nc(N)c2nc(Sc3cccc(C(F)(F)F)c3)cnc2n1 | < 0.25 | < 0.25 | < 0.25 |
| CN(C)/C=N\c1nc(/N=C/N(C)C)nc2ncc(Sc3ccc(Cl)c(Cl)c3)nc12 | > 25 | < 0.25 | > 25 |

Continued, values first:

| MIC (Staphylococcus aureus [1]) [µg/mL] | MIC (Enterococcus faecalis) [µg/mL] | MIC (Staphylococcus aureus [2]) [µg/mL] | SMILES |
| --- | --- | --- | --- |
| > 25 | 1.5 (≈ 4.68 µM) | > 25 | Nc1nc(N)c2nc(Sc3ccc4ccccc4c3)cnc2n1 |
| 2 (≈ 6.66 µM) | < 0.25 | 2 (≈ 6.66 µM) | COc1ccc(Sc2cnc3nc(N)nc(N)c3n2)cc1 |
